Source: ChEMBL document CHEMBL1955798, “Novel coumarins and 2-thioxo-coumarins as inhibitors of the tumor-associated carbonic anhydrases IX and XII” (Bioorg Med Chem, 2012)

Tests used:
Carbonic anhydrase 9 = Carbonic anhydrase 9 (Homo sapiens, UniProt Q16790); test: Inhibition of human carbonic anhydrase 9 after 6 hrs by stop-flow CO2 hydration assay
Carbonic anhydrase 2 = Carbonic anhydrase 2 (Homo sapiens, UniProt P00918); test: Inhibition of human carbonic anhydrase 2 after 6 hrs by stop-flow CO2 hydration assay
Carbonic anhydrase 1 = Carbonic anhydrase 1 (Homo sapiens, UniProt P00915); test: Inhibition of human carbonic anhydrase 1 after 6 hrs by stop-flow CO2 hydration assay
Chain of Carbonic anhydrase 1 (P00915 whole entry): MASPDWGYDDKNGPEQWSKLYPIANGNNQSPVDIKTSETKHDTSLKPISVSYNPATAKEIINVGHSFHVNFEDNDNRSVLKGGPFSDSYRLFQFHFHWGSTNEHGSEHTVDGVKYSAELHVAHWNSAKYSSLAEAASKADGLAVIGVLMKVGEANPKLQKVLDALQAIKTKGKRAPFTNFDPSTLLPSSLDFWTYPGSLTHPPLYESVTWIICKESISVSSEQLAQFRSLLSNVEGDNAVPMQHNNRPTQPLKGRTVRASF

Carbonic anhydrase 12 = Carbonic anhydrase 12 (Homo sapiens, UniProt O43570); test: Inhibition of human carbonic anhydrase 12 after 6 hrs by stop-flow CO2 hydration assay
Chain of Carbonic anhydrase 12 (O43570 whole entry): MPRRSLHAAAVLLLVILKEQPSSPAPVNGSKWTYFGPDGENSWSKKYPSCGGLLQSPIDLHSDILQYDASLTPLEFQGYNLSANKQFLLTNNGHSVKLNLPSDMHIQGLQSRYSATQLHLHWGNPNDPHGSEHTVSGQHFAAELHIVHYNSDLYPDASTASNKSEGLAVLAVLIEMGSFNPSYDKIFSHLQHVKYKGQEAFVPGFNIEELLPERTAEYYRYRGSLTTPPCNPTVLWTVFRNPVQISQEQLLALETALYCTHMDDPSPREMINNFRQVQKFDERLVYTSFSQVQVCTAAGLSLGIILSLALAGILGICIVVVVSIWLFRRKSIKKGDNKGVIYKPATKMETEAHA

SMILES	Ki (Carbonic anhydrase 9) [nM]	Ki (Carbonic anhydrase 2) [nM]	Ki (Carbonic anhydrase 1) [nM]	Ki (Carbonic anhydrase 12) [nM]
CC(C)(C)[Si](C)(C)Oc1ccc2oc(=O)ccc2c1	800	–	–	–
O=c1ccc2ccc(OCCF)cc2o1	680	> 200000	–	–
O=c1ccc2ccc(OCCO)cc2o1	920	> 200000	–	–
C=CCOc1cc(=O)oc2ccccc12	210	> 200000	–	–
Oc1ccc2oc(=S)ccc2c1	800	–	–	–
Cc1ccc(S(=O)(=O)OCCOc2ccc3ccc(=O)oc3c2)cc1	530	> 200000	–	–
Cc1cc(=O)oc2cc(NC(=O)OC(C)(C)C)ccc12	970	> 200000	–	–
C=CCOc1cc(=S)oc2ccccc12	–	> 200000	–	–
CC(C)(C)[Si](C)(C)Oc1ccc2ccc(=S)oc2c1	960	> 200000	–	–
CC(C)(C)[Si](C)(C)Oc1ccc2oc(=S)ccc2c1	860	> 200000	–	–
CC(=O)Nc1ccc2c(C)cc(=O)oc2c1	390	> 200000	–	–
C=CCOc1ccc2ccc(=S)oc2c1	3230	> 200000	–	–
C=CCOc1ccc2oc(=O)ccc2c1	930	> 200000	–	–
C=CCOc1ccc2oc(=S)ccc2c1	3260	–	–	–
Oc1ccc2ccc(=S)oc2c1	780	> 200000	–	–
C=CCOc1ccc2ccc(=O)oc2c1 [7-ALLYLOXYCOUMARIN]	730	> 200000	72900	640
Cc1cc(C)cc(NC(=O)Nc2ccc3c(C)cc(=O)oc3c2)c1	–	> 200000	–	–
